Experimental data reported in publication PMC7822874, “Chemoprotective antimalarials identified through quantitative high-throughput screening of Plasmodium blood and liver stage parasites” (Scientific Reports, 2021).
Where “and” joins values, the source holds several entries; their conditions need not be identical. Equal entries are not always repeated. Where two headings read alike, the source gives them in different places.

Assays:
[1] = system: P. berghei-ANKA-GFP-LucCON liver stage parasites in HepG2-A16-CD81EGFP cells; assay: P. berghei liver stage Pb-Luc assay, Method 1 (UCSD, 1536-well); assay type: cell-based, Plasmodium berghei; details: for Max Resp (signal direction of the dose response): Decrease = decreasing P. berghei viability with dose, Increase = increasing signal, Inactive = no dose response; for activity at 1 µM / activity at 3 µM: 48 h
[2] = system: Plasmodium falciparum Dd2 asexual blood stage parasites; assay: microbe, parasite or virus in culture; design: species or system Plasmodium falciparum Dd2 in human erythrocytes; single determination (one 11-point concentration-response curve); details: Plasmodium falciparum, DD2, Erythrocyte, 72 h; read-out: AC50
[3] = system: luciferase-expressing P. berghei liver stage parasites in HepG2 cells; assay: Inhibition of liver-stage development assay (ILSDA), Method 2 (WRAIR, 96-well); assay type: cell-based, Plasmodium berghei; details: for Max Resp (signal direction of the dose response): Method 2, Decrease = decreasing P. berghei viability with dose, Increase = increasing signal, Inactive = no dose response; for AC50: Plasmodium berghei, HepG2, Method 2
in vitro [4] = details: human, HepG2 cells; n = 1
[5] = system: T1, Plasmodium falciparum Dd2-attB-ScDHODH (transgenic line expressing yeast DHODH), asexual blood stages; assay: organism not typed; design: replicate k of 3 (each line is one of three independent assays; the three lines of one compound and parasite line follow each other); details: 72 h, n = 1
T1 construct: Dd2-attB-ScDHODH, the transgenic line that expresses yeast DHODH
In short: (§1)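 Three independent runs, compound subset only; parental vs ScDHODH line compared by two-sided Student's t-test.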

[6] = system: T2, Plasmodium falciparum Dd2-attB (parental line), asexual blood stages; assay: microbe, parasite or virus in culture; design: replicate k of 3 (each line is one of three independent assays; the three lines of one compound and parasite line follow each other); details: n = 1; for Individual replicates / Log AC50 (M): 72 h; for AC50: Plasmodium falciparum, DD2, 72 h, read-out: Individual replicates / Log AC50 (converted)
T2 construct: Dd2-attB, the isogenic parental line
In short: as §1

in vitro [7] = details: human, HepG2-A16-CD81EGFP cells, uninfected
HepG2-A16-CD81EGFP cells = details: average of 2 wells; for HepG2 viability signal, 1 uM, repeat 2: nominal 1 uM (10 mM stock), […] for 15 mM, 1.2 uM for 12 mM, 2 uM for 20 mM stock; for HepG2 viability signal, 3 uM, repeat 2: nominal 3 uM (10 mM stock), 4.5 uM for 15 mM, 3.6 uM for 12 mM, 6 uM for 20 mM stock
[8] = Plasmodium berghei, Method 1, Hill fit, 50% of maximum activity response, read-out: AC50
[9] = Plasmodium berghei, Method 1, log10 of molar AC50 from Hill fit, read-out: Log AC50 (converted)
[10] = Hill fit, 50% of maximum activity response, read-out: AC50
[11] = log10 of molar AC50 from Hill fit, read-out: Log AC50 (converted)
[12] = Plasmodium berghei, nominal 1 uM (10 mM stock), […] for 15 mM, 1.2 uM for 12 mM, 2 uM for 20 mM stock, average of 2 wells, 1536-well plate, repeat 1, read-out: Pb-Luc signal, 1 uM, repeat 1
[13] = Plasmodium berghei, nominal 1 uM (10 mM stock), […] for 15 mM, 1.2 uM for 12 mM, 2 uM for 20 mM stock, average of 2 wells, 1536-well plate, repeat 2, read-out: Pb-Luc signal, 1 uM, repeat 2
[14] = Plasmodium berghei, nominal 1 uM (10 mM stock), […] for 15 mM, 1.2 uM for 12 mM, 2 uM for 20 mM stock, average of 2 wells, 1536-well plate, repeat 3, read-out: Pb-Luc signal, 1 uM, repeat 3
[15] = Plasmodium berghei, nominal 3 uM (10 mM stock), 4.5 uM for 15 mM, 3.6 uM for 12 mM, 6 uM for 20 mM stock, average of 2 wells, 1536-well plate, repeat 1, read-out: Pb-Luc signal, 3 uM, repeat 1
[16] = Plasmodium berghei, nominal 3 uM (10 mM stock), 4.5 uM for 15 mM, 3.6 uM for 12 mM, 6 uM for 20 mM stock, average of 2 wells, 1536-well plate, repeat 2, read-out: Pb-Luc signal, 3 uM, repeat 2
[17] = Plasmodium berghei, nominal 3 uM (10 mM stock), 4.5 uM for 15 mM, 3.6 uM for 12 mM, 6 uM for 20 mM stock, average of 2 wells, 1536-well plate, repeat 3, read-out: Pb-Luc signal, 3 uM, repeat 3

SMILES: O=C(Nc1ccc(Br)cc1)c1ccc(F)c([S+](=O)([O-])NC2CCCCCC2)c1 [NCGC00139407-01]
- Max Resp (signal direction of the dose response) ([1]; Method 1): Decrease
- AC50 ([1]; Method 1, Hill fit, 50% of maximum activity response, read-out: AC50): 1.12 µM
- Log AC50 (M) ([1]; Method 1, log10 of molar AC50 from Hill fit): -5.950 M
- AC50 [1, 8]: 0.562 µM
- AC50 [1, 9]: 0.562 µM
- AC50 [2]: 9.44 µM
- Max Resp (signal direction of the dose response) [3]: Decrease
- AC50 [3, 10]: 0.631 µM
- AC50 [3, 11]: 0.631 µM
- CC50 at 48 h (in vitro [4]): 13.7 µM

SMILES: Oc1c(C(Nc2nccs2)c2ccc(C(F)(F)F)cc2)ccc2cccnc12 (stereo not drawn) [MLS000774842-01]
- AC50 [2]: 5.31 µM
- Max Resp (signal direction of the dose response) [3]: Decrease
- AC50 [3, 10]: 0.282 µM
- AC50 [3, 11]: 0.282 µM
- CC50 at 48 h (in vitro [4]): 15.3 µM

SMILES: Oc1c(CNc2ccccc2)cc(COCc2ccccc2)c2cccnc12 [NCGC00183370-01]
- Individual replicates / Log AC50 (M) [5]: -4.7986 Log AC50 (M)
- AC50 ([5]; read-out: Individual replicates / Log AC50 (converted)): 14.2 µM
- Individual replicates / Log AC50 (M) [6]: -5.0486 Log AC50 (M)
- AC50 [6]: 11.3 µM
- CC50 at 48 h (in vitro [4]): 21.7 µM

SMILES: COc1ccc(CN[C@@H]2C=C[C@@H](c3c(C)nn(-c4ccc(OC)cc4)c3C)C2)cc1 [NCGC00401425-01]
- activity at 1 µM [1, 12]: 79.1%
- activity at 1 µM [1, 13]: 135%
- activity at 1 µM [1, 14]: 59%
- activity at 3 µM [1, 15]: 56.4%
- activity at 3 µM [1, 16]: 76.7%
- activity at 3 µM [1, 17]: 51.8%
- AC50 [2]: 4.85 µM
- viability at 48 h, 1 µM (in vitro [7]): 100%
- viability at 48 h, 3 µM (in vitro [7]): 99.3%
- HepG2 viability signal, 1 uM, repeat 2 (HepG2-A16-CD81EGFP cells): 96.20%
- HepG2 viability signal, 3 uM, repeat 2 (HepG2-A16-CD81EGFP cells): 99.98%
- CC50 at 48 h (in vitro [4]): 39.6 µM

SMILES: O=C(NC(c1ccccc1)c1cc(Cl)c2cccnc2c1O)c1cccnc1 (stereo not drawn) [MLS000573359-01]
- AC50 [2]: 7.5 µM
- Max Resp (signal direction of the dose response) [3]: Decrease
- AC50 [3, 10]: 1.12 µM
- AC50 [3, 11]: 1.12 µM
- viability at 48 h, 1 µM (in vitro [7]): 119%
- viability at 48 h, 3 µM (in vitro [7]): 66%
- CC50 at 48 h (in vitro [4]): 13.7 µM

SMILES: Cc1nn2c(c1-c1ccccc1-c1ccccc1)N(Cc1ccc(O)cc1)CCC2 [NCGC00420512-01]
- Max Resp (signal direction of the dose response) ([1]; Method 1): Decrease
- activity at 1 µM [1, 12]: 76.6%
- activity at 1 µM [1, 13]: 69.5%
- activity at 1 µM [1, 14]: 95.1%
- activity at 3 µM [1, 15]: 15.6%
- activity at 3 µM [1, 16]: 15.8%
- activity at 3 µM [1, 17]: 40.5%
- AC50 [1, 8]: 1.58 µM
- AC50 [1, 9]: 1.58 µM
- AC50 [2]: 0.485 µM
- viability at 48 h, 1 µM (in vitro [7]): 96.5%
- viability at 48 h, 3 µM (in vitro [7]): 112%
- HepG2 viability signal, 1 uM, repeat 2 (HepG2-A16-CD81EGFP cells): 99.38%
- HepG2 viability signal, 3 uM, repeat 2 (HepG2-A16-CD81EGFP cells): 110.31%
- CC50 at 48 h (in vitro [4]): 28 µM

SMILES: Oc1c(CN2CCCC2)cc(COCc2ccccc2)c2cccnc12 [NCGC00183371-01]
- Individual replicates / Log AC50 (M) [5]: -4.7986 Log AC50 (M) and -5.1486 Log AC50 (M)
- AC50 [2]: 6.68 µM
- Individual replicates / Log AC50 (M) [6]: -5.2986 Log AC50 (M) and -5.1986 Log AC50 (M)
- AC50 [6]: 3.99 µM
- CC50 at 48 h (in vitro [4]): 8.62 µM

SMILES: O=C(N/N=C(/c1ccccc1)c1cccnc1)c1cccc(F)c1 [MLS001224623-01]
- activity at 1 µM ([1]; Plasmodium berghei, P. berghei liver stage, 1 µM compound treatment (10 mM stocks), replicate 1, normalized, average of 2 wells on a 1536 well plate, read-out: PbLuc 1uM growth rep1): 10%
- activity at 1 µM ([1]; Plasmodium berghei, P. berghei liver stage, 1 µM compound treatment (10 mM stocks), replicate 2, normalized, average of 2 wells on a 1536 well plate, read-out: PbLuc 1uM growth rep2): 9%
- activity at 3 µM ([1]; Plasmodium berghei, P. berghei liver stage, 3 µM compound treatment (10 mM stocks), replicate 1, normalized, average of 2 wells on a 1536 well plate, read-out: PbLuc 3uM growth rep1): 6.61%
- activity at 3 µM ([1]; Plasmodium berghei, P. berghei liver stage, 3 µM compound treatment (10 mM stocks), replicate 2, normalized, average of 2 wells on a 1536 well plate, read-out: PbLuc 3uM growth rep2): 8%
- AC50 [2]: 4.22 µM
- HepG2 1uM growth rep1 (HepG2-A16-CD81EGFP cells; HepG2, 1 µM compound treatment (10 mM stocks), replicate 1, normalized): 68%
- HepG2 1uM growth rep2 (HepG2-A16-CD81EGFP cells; HepG2, 1 µM compound treatment (10 mM stocks), replicate 2, normalized): 59%
- HepG2 3uM growth rep1 (HepG2-A16-CD81EGFP cells; HepG2, 3 µM compound treatment (10 mM stocks), replicate 1, normalized): 30%
- HepG2 3uM growth rep2 (HepG2-A16-CD81EGFP cells; HepG2, 3 µM compound treatment (10 mM stocks), replicate 2, normalized): 34%
- CC50 at 48 h (in vitro [4]): 12.2 µM
